Earlier results as cited in patent US20050013939A1, “Boron-based wood preservatives and treatment of wood with boron-based preservatives” (priority 2001, published 2005).

How the values were obtained:
Insect = conditions: boric acid equivalents typically required in wood
fungal decay = conditions: boric acid equivalents typically required in wood

OB(O)O [boric acid]
% wt/wt BAE required, Insect protection (Insect): 0.25 % wt/wt
% wt/wt BAE required, Fungicidal protection (fungal decay): 0.75 % wt/wt
